Data as given in US7205327B2, “Imidazole and benzimidazole caspase inhibitors and uses thereof” (Vertex Pharmaceuticals Incorporated, priority 2000, dated 2007).
Where a name gives a salt, the structure may show the parent alone.

Test system: FAS induced apoptosis
Assay: Anti-fas induced apoptosis assay
Assay type: cell-based
Excerpt: Anti-fas Induced Apoptosis Assay
Cellular apoptosis may be induced by the binding of Fas ligand (FasL) to its receptor, CD95 (Fas). Conditions for an assay to measure the effect of compounds on the inhibition of the caspase-8-mediated apoptotic pathway may be found in WO0142216.

Structure (SMILES) | IC50 [µM]
C[C@H](NC(=O)c1ncc[nH]1)C(=O)NC(CC(=O)O)C(=O)CF (stereo partly drawn) [Compound 1, [3S/R,(2S)]-5-Fluoro-3-{2-[(1H-imidazole-2-carbonyl)-amino]-propionylamino}-4-oxo-pentanoic acid, trifluoroacetate salt] | < 0.2
C[C@H](NC(=O)c1nc2ccccc2[nH]1)C(=O)NC(CC(=O)O)C(=O)CF (stereo partly drawn) [Compound 2, [3S/R, (2S)]-3-{2-[(1H-Benzoimidazole-2-carbonyl)-amino]-propionylamino}-5-fluoro-4-oxo-pentanoic acid, trifluoroacetate salt] | < 0.2
CC[C@H](NC(=O)c1ncc[nH]1)C(=O)NC(CC(=O)O)C(=O)CF (stereo partly drawn) [Compound 3, [3S/R,(2S)]-5-Fluoro-3-{2-[(1H-imidazole-2-carbonyl)-amino]-butyrylamino}-4-oxo-pentanoic acid, trifluoroacetate salt] | < 0.2
CC(C)[C@H](NC(=O)c1ncc[nH]1)C(=O)NC(CC(=O)O)C(=O)CF (stereo partly drawn) [Compound 4, [3S/R,(2S)]-5-Fluoro-3-{2-[(1H-imidazole-2-carbonyl)-amino]-3-methylbutyrylamino}-4-oxo-pentanoic acid] | < 0.2
CC(C)[C@H](NC(=O)c1nc2ccccc2[nH]1)C(=O)NC(CC(=O)O)C(=O)CF (stereo partly drawn) [Compound 5, [3S/R, (2S)]-3-{2-[(1H-Benzoimidazole-2-carbonyl)-amino]-3-methylbutyrylamino}-5-fluoro-4-oxo-pentanoic acid] | < 0.2
